Results published in patent US12012412B2, “Solid forms of pyrazolo[3,4-d]pyrimidine compounds” (Pfizer Inc., priority 2021, dated 2024).
Values after ≈ are worked out from the molar mass of the structure shown.

Assays:
Type in all cases: physicochemical
[1] = True density of Solid Form A; settings: lots of Solid Form A; A2 and A9 unmilled, A3 and A6/A7 milled
[2] = Particle size of batches of Solid Form A; settings: batches of Solid Form A, milled or unmilled per batch
From the text: Primary particles from below 100 μm to around 500 μm in size, with soft agglomerates up to several millimeters, were observed. The D[4,3] of this material was 195 μm. This material was subsequently milled, to give far fewer large particles and an overall much smaller average primary particle size, giving a D[4,3] of 49.5 μm. See Table 8 for a comparison of particle size properties of various batches.

[3] = Mechanical properties of batches of Solid Form A; settings: lots of Solid Form A; A2 and A9 unmilled, A3 and A6/A7 milled
[4] = Solubility of Solid Form A and amorphous Compound X in various solvents at room temperature

CC1CN(Cc2ncccn2)CC1c1nc2c(cnn2C2CCOCC2)c(=O)[nH]1 (stereo not drawn) [A2]
True density (g/cm3), Value [1]: 1.28 g/cm3 | Particle size D[4, 3] [2]: 144 μm | Particle size D[v, 0.1] [2]: 45.6 µm | Particle size D[v, 0.9] [2]: 247 µm | Brittle fracture index, Rating [3]: Low | Brittle fracture index, Value [3]: 0.0486 | Brittle/viscoelastic bonding index (x105), Value [3]: 2.61 | Brittle/viscoelastic bonding index, Rating [3]: Poor | Compression stress (MPa), Value [3]: 58.8 MPa | Compression stress, Rating [3]: Moderate | Compromised Tensile strength (MPa), Value [3]: 0.274 MPa | Solid fraction, Value [3]: 0.87 | Tensile strength (MPa), Value [3]: 0.3 MPa | Tensile strength, Rating [3]: Low

CC1CN(Cc2ncccn2)CC1c1nc2c(cnn2C2CCOCC2)c(=O)[nH]1 (stereo not drawn) [A3]
True density (g/cm3), Value [1]: 1.29 g/cm3 | Particle size D[4, 3] [2]: 60.2 μm | Particle size D[v, 0.1] [2]: 10.5 µm | Particle size D[v, 0.9] [2]: 126 µm | Brittle fracture index, Rating [3]: Low | Brittle fracture index, Value [3]: 0.139 | Brittle/viscoelastic bonding index (x105), Value [3]: 8.44 | Brittle/viscoelastic bonding index, Rating [3]: Marginal | Compression stress (MPa), Value [3]: 67.9 MPa | Compression stress, Rating [3]: Moderate | Compromised Tensile strength (MPa), Value [3]: 0.488 MPa | Solid fraction, Value [3]: 0.857 | Tensile strength (MPa), Value [3]: 0.624 MPa | Tensile strength, Rating [3]: Moderate

CC1CN(Cc2ncccn2)CC1c1nc2c(cnn2C2CCOCC2)c(=O)[nH]1 (stereo not drawn) [A4]
Particle size D[4, 3] [2]: 24.1 μm | Particle size D[v, 0.1] [2]: 4.39 µm | Particle size D[v, 0.9] [2]: 52.5 µm

CC1CN(Cc2ncccn2)CC1c1nc2c(cnn2C2CCOCC2)c(=O)[nH]1 (stereo not drawn) [A5]
Particle size D[4, 3] [2]: 89.2 μm | Particle size D[v, 0.1] [2]: 6.86 µm | Particle size D[v, 0.9] [2]: 197 µm

CC1CN(Cc2ncccn2)CC1c1nc2c(cnn2C2CCOCC2)c(=O)[nH]1 (stereo not drawn) [A6/A7]
True density (g/cm3), Value [1]: 1.29 g/cm3 | Brittle fracture index, Rating [3]: Low | Brittle fracture index, Value [3]: 0.022 | Brittle/viscoelastic bonding index (x105), Value [3]: 5.3 | Brittle/viscoelastic bonding index, Rating [3]: Poor | Compression stress (MPa), Value [3]: 56.3 MPa | Compression stress, Rating [3]: Moderate | Compromised Tensile strength (MPa), Value [3]: 0.393 MPa | Dynamic indentation hardness (MPa), Value [3]: 41.6 MPa | Dynamic indentation hardness [ductility rating], Rating [3]: Very high | Solid fraction, Value [3]: 0.85 | Tensile strength (MPa), Value [3]: 0.41 MPa | Tensile strength, Rating [3]: Low

CC1CN(Cc2ncccn2)CC1c1nc2c(cnn2C2CCOCC2)c(=O)[nH]1 (stereo not drawn) [A6]
Particle size D[4, 3] [2]: 78.6 μm | Particle size D[v, 0.1] [2]: 5.89 µm | Particle size D[v, 0.9] [2]: 179 µm | Particle size D[4, 3] ([2]; listed as A7): 85.1 μm | Particle size D[v, 0.1] ([2]; listed as A7): 6.17 µm | Particle size D[v, 0.9] ([2]; listed as A7): 191 µm

CC1CN(Cc2ncccn2)CC1c1nc2c(cnn2C2CCOCC2)c(=O)[nH]1 (stereo not drawn) [A8]
Particle size D[4, 3] [2]: 48.6 μm | Particle size D[v, 0.1] [2]: 3.96 µm | Particle size D[v, 0.9] [2]: 118 µm

CC1CN(Cc2ncccn2)CC1c1nc2c(cnn2C2CCOCC2)c(=O)[nH]1 (stereo not drawn) [A9]
True density (g/cm3), Value [1]: 1.29 g/cm3 | Particle size D[4, 3] [2]: 195 μm | Particle size D[v, 0.1] [2]: 20.6 µm | Particle size D[v, 0.9] [2]: 362 µm | Brittle fracture index, Rating [3]: Very low | Brittle fracture index, Value [3]: −0.077 | Brittle/viscoelastic bonding index (x105), Value [3]: 1.95 | Brittle/viscoelastic bonding index, Rating [3]: Poor | Compression stress (MPa), Value [3]: 52.5 MPa | Compression stress, Rating [3]: Moderate | Compromised Tensile strength (MPa), Value [3]: 0.302 MPa | Dynamic indentation hardness (MPa), Value [3]: 63.6 MPa | Dynamic indentation hardness [ductility rating], Rating [3]: High | Solid fraction, Value [3]: 0.85 | Tensile strength (MPa), Value [3]: 0.255 MPa | Tensile strength, Rating [3]: Very low | Worst case bonding index (x102), Value [3]: 0.401 | Worst case bonding index, Rating [3]: Moderate

CC1CN(Cc2ncccn2)CC1c1nc2c(cnn2C2CCOCC2)c(=O)[nH]1 (stereo not drawn) [A10]
Particle size D[4, 3] [2]: 49.5 μm | Particle size D[v, 0.1] [2]: 3.29 µm | Particle size D[v, 0.9] [2]: 129 µm

C[C@@H]1CN(Cc2ncccn2)C[C@H]1c1nc2c(cnn2C2CCOCC2)c(=O)[nH]1 [amorphous Compound X, 6-((3S,4S)-4-methyl-1-(pyrimidin-2-ylmethyl)pyrrolidin-3-yl)-1-(tetrahydro-2H-pyran-4-yl)-1,5-dihydro-4H-pyrazolo[3,4-d]pyrimidin-4-one]
Solubility (mg/ml) ([4]; 1,2-Xylene): 19.9 mg/mL (≈ 50.3 mM) | Solubility (mmol) ([4]; 1,2-Xylene): 50 mmol | Solubility (mmol) ([4]; Acetone): >202 mmol | Solubility (mg/ml) ([4]; Chloroform): >92.3 mg/mL | Solubility (mmol) ([4]; Chloroform): >233 mmol | Solubility (mg/ml) ([4]; Dioxane): 27.9 mg/mL (≈ 70.5 mM) | Solubility (mmol) ([4]; Dioxane): 71 mmol | Solubility (mg/ml) ([4]; EtOAc): 20.6 mg/mL (≈ 52.1 mM) | Solubility (mmol) ([4]; EtOAc): 52 mmol | Solubility (mg/ml) ([4]; EtOH): >98.6 mg/mL | Solubility (mmol) ([4]; EtOH): >249 mmol | Solubility (mg/ml) ([4]; Glyme (1,2-Dimethoxyethane)): >113.2 mg/mL | Solubility (mmol) ([4]; Glyme (1,2-Dimethoxyethane)): >286 mmol | Solubility (mg/ml) ([4]; H2O (Water)): 64.8 mg/mL (≈ 164 mM) | Solubility (mmol) ([4]; H2O (Water)): 164 mmol | Solubility (mg/ml) ([4]; H2O-EtOH (Water/EtOH)): >26.8 mg/mL | Solubility (mmol) ([4]; H2O-EtOH (Water/EtOH)): >68 mmol | Solubility (mg/ml) ([4]; H2O-MeCN (Water/MeCN)): >75.6 mg/mL | Solubility (mmol) ([4]; H2O-MeCN (Water/MeCN)): >191 mmol | Solubility (mg/ml) ([4]; H2O-MeOH (Water/MeOH)): >42.5 mg/mL | Solubility (mmol) ([4]; H2O-MeOH (Water/MeOH)): >107 mmol | Solubility (mg/ml) ([4]; H2O-acetone (Water/acetone)): >130.3 mg/mL | Solubility (mmol) ([4]; H2O-acetone (Water/acetone)): >329 mmol | Solubility (mg/ml) ([4]; Heptane): 0.7 mg/mL (≈ 1.77 mM) | Solubility (mmol) ([4]; Heptane): 2 mmol | Solubility (mg/ml) ([4]; IPA): >85.9 mg/mL | Solubility (mmol) ([4]; IPA): >217 mmol | Solubility (mg/ml) ([4]; MTBE): 11.2 mg/mL (≈ 28.3 mM) | Solubility (mmol) ([4]; MTBE): 28 mmol | Solubility (mg/ml) ([4]; MeCN): >117.3 mg/mL | Solubility (mmol) ([4]; MeCN): >297 mmol | Solubility (mg/ml) ([4]; MeOH): >90.2 mg/mL | Solubility (mmol) ([4]; MeOH): >228 mmol | Solubility (mg/ml) ([4]; Nitromethane): >70.2 mg/mL | Solubility (mmol) ([4]; Nitromethane): >178 mmol | Solubility (mg/ml) ([4]; THF): 81.5 mg/mL (≈ 206 mM) | Solubility (mmol) ([4]; THF): 206 mmol | Solubility (mg/ml) ([4]; Toluene): 18.3 mg/mL (≈ 46.3 mM) | Solubility (mmol) ([4]; Toluene): 46 mmol | solubility ([4]; acetone, organic solvent or mixture): > 79.7 mg/mL
